The source made the active and inactive calls. The calls are words filed in the database; no cut-off is given here.
Assays:
[1] = molecular target: T1, von Hippel-Lindau disease tumor suppressor/Phosphatidylinositol 4,5-bisphosphate 3-kinase catalytic subunit beta isoform (Homo sapiens, UniProt P42338+P40337); experiment: PROTAC activity at PI3K-p110beta/VHL in human A549/DDP cells assessed as reduction in PI3K-p110beta mRNA level at 25 uM measured for 24 hrs by qRT-PCR analysis; assay type: cell-based
Target sequence in this assay (P40337 whole entry, looked up, canonical isoform): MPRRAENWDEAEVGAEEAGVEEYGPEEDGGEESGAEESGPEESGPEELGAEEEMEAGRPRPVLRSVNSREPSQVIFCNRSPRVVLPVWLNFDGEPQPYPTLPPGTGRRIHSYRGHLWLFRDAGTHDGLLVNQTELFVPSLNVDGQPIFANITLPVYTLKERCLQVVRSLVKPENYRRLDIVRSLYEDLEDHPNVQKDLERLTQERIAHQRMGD
Target sequence in this assay (P42338 whole entry, looked up, canonical isoform): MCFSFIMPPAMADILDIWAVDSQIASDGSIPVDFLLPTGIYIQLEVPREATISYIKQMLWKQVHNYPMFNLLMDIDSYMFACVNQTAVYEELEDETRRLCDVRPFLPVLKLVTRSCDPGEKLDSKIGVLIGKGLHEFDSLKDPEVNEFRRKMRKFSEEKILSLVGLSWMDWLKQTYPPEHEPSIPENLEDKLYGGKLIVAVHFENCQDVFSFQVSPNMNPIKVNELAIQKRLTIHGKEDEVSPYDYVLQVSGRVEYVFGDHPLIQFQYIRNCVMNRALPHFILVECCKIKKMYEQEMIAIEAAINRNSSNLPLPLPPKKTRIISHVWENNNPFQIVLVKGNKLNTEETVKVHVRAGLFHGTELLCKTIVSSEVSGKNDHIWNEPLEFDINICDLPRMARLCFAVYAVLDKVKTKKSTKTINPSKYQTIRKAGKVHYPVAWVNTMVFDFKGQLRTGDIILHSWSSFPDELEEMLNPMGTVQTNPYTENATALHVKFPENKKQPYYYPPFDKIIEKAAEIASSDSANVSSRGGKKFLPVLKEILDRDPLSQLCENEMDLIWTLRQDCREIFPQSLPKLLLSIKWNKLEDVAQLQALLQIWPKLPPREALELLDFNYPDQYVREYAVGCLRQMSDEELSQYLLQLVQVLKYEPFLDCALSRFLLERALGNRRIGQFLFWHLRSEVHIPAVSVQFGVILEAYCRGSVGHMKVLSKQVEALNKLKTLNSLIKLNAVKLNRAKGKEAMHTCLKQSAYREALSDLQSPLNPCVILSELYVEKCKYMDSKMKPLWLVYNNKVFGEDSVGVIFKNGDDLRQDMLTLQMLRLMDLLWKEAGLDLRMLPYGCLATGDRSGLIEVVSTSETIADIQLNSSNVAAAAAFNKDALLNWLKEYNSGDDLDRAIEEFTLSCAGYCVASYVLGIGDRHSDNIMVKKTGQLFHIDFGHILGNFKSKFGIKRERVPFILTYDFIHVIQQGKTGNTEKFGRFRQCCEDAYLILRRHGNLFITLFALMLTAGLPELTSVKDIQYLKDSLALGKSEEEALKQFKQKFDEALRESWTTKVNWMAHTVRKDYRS

[2] = system: A549/CDDP; experiment: Induction of apoptosis in human A549/DDP cells at 12.5 uM incubated for 24 hrs by Annexin V-FITC/PI staining based flow cytometry analysis (reference value: 4.27%); assay type: functional
[3] = molecular target: T2, von Hippel-Lindau disease tumor suppressor/Phosphatidylinositol 4,5-bisphosphate 3-kinase catalytic subunit alpha isoform (Homo sapiens, UniProt P42336+P40337); experiment: PROTAC activity at PI3K-p110alpha/VHL in human A549/DDP cells assessed as reduction in PI3K-p110alpha mRNA level at 25 uM measured for 24 hrs by qRT-PCR analysis; assay type: cell-based
T2 sequence (P40337 whole entry, looked up, canonical isoform): as the sequence (P40337 whole entry, looked up, canonical isoform) above
T2 sequence (P42336 whole entry, looked up, canonical isoform): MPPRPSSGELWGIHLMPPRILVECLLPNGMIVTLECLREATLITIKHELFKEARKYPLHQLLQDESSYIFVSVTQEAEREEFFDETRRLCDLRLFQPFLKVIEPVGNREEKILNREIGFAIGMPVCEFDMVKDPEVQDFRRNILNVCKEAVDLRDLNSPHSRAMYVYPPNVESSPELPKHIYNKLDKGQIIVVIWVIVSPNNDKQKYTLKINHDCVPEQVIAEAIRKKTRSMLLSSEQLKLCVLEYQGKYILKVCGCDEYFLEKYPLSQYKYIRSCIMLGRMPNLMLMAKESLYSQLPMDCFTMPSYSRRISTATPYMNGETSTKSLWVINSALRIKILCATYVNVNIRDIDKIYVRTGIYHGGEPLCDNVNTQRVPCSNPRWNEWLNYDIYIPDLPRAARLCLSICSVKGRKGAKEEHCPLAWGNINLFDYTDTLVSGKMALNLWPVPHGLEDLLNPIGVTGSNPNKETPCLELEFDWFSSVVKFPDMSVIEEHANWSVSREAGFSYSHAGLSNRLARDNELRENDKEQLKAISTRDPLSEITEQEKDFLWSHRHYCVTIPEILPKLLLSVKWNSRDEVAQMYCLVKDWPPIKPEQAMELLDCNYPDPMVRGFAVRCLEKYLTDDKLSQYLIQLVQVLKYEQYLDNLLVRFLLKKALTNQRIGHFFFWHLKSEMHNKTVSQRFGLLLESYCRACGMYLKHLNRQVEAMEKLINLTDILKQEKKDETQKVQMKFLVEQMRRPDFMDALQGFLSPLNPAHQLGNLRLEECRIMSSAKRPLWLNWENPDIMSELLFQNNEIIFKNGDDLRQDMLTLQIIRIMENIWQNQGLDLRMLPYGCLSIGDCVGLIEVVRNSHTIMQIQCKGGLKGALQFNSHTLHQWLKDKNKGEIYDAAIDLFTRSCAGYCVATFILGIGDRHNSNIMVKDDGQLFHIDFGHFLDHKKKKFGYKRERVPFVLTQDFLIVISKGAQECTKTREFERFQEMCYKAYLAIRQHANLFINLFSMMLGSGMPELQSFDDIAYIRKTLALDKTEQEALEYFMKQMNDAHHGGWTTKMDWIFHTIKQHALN

[4] = molecular target: T1, von Hippel-Lindau disease tumor suppressor/Phosphatidylinositol 4,5-bisphosphate 3-kinase catalytic subunit beta isoform; experiment: PROTAC activity at PI3K-p110beta/VHL in human MCF7/ADM cells assessed as induction of PI3K-p110beta degradation incubated for 24 hrs by Western blot analysis; assay type: cell-based
Target sequence in this assay (P42338 whole entry, canonical isoform): as the sequence (P42338 whole entry, looked up, canonical isoform) above
Target sequence in this assay (P40337 whole entry, canonical isoform): as the sequence (P40337 whole entry, looked up, canonical isoform) above

[5] = system: A549/CDDP; experiment: Induction of apoptosis in human A549/DDP cells at 25 uM incubated for 24 hrs by Annexin V-FITC/PI staining based flow cytometry analysis (reference value: 4.27%); assay type: functional
[6] = Induction of apoptosis in human MCF7/ADM cells at 25 uM incubated for 24 hrs in presence of TUDCA by Annexin V-FITC/PI staining based flow cytometry analysis (reference value: 5.20%); assay type: functional
[7] = Induction of apoptosis in human MCF7/ADM cells at 12.5 uM incubated for 24 hrs by Annexin V-FITC/PI staining based flow cytometry analysis (reference value: 5.20%); assay type: functional
[8] = molecular target: T2, von Hippel-Lindau disease tumor suppressor/Phosphatidylinositol 4,5-bisphosphate 3-kinase catalytic subunit alpha isoform; experiment: PROTAC activity at PI3K-p110alpha/VHL in human A549/DDP cells assessed as reduction in PI3K-p110alpha level incubated for 24 hrs by Western blot analysis; assay type: cell-based; conditions: dose 0.04-50 µM
[9] = molecular target: T1, von Hippel-Lindau disease tumor suppressor/Phosphatidylinositol 4,5-bisphosphate 3-kinase catalytic subunit beta isoform; experiment: PROTAC activity at PI3K-p110beta/VHL in human MCF7/ADM cells assessed as reduction in PI3K-p110beta mRNA level at 25 uM measured for 24 hrs by qRT-PCR analysis; assay type: cell-based
Target sequence in this assay (P40337 whole entry, looked up, canonical isoform): as above
Target sequence in this assay (P42338 whole entry, looked up, canonical isoform): as the sequence (P42338 whole entry, looked up, canonical isoform) above

[10] = molecular target: T2, von Hippel-Lindau disease tumor suppressor/Phosphatidylinositol 4,5-bisphosphate 3-kinase catalytic subunit alpha isoform; experiment: PROTAC activity at PI3K-p110alpha/VHL in human MCF7/ADM cells assessed as reduction in PI3K-p110alpha mRNA level at 25 uM measured for 24 hrs by qRT-PCR analysis; assay type: cell-based

| Structure (SMILES) | Activity [1] | Activity [2] [%] | Activity [3] | DC50 [4] [µM] | Activity [5] [%] | Activity [6] [%] | Activity [7] [%] | Activity [8] | Activity [9] | Activity [10] |
| --- | --- | --- | --- | --- | --- | --- | --- | --- | --- | --- |
| Cc1cc(C(C)Nc2ccccc2C(=O)NCCCCCCC(=O)N[C@H](C(=O)N2C[C@H](O)C[C@H]2C(=O)NCc2ccc(-c3scnc3C)cc2)C(C)(C)C)c2nc(N3CCOCC3)cc(=O)n2c1 (stereo not given in full) | inactive | 15.76 | inactive | 1.26 | 23.83 |  |  |  |  |  |
| Cc1cc(C(C)Nc2ccccc2C(=O)NCCOCCOCCC(=O)N[C@H](C(=O)N2C[C@H](O)C[C@H]2C(=O)NCc2ccc(-c3scnc3C)cc2)C(C)(C)C)c2nc(N3CCOCC3)cc(=O)n2c1 (stereo not given in full) |  |  |  |  |  | 21.59 | 15.59 | Dose-dependent-effect | Active | Active |

Reference: ChEMBL document CHEMBL6134905, “Double Swords in One: Novel Selective PI3K/110β PROTAC Degraders for the Treatment of Multidrug-Resistant Cancer by Activating ERS and Inhibiting P-gp” (J Med Chem, 2025)
